Experimental data taken from the NIST ThermoML archive (doi:10.1016/j.jct.2018.11.004).

Test: molar heat capacity at saturation pressure
Conditions: Small (less than 1 g) adiabatic calorimetry

CC(C)[C@@H]1CC[C@@H](C)C[C@H]1O [L-menthol]
Conditions	molar heat capacity [J/K/mol]
5.02 K, Crystal 1	0.8545
5.31 K, Crystal 1	1.027
5.63 K, Crystal 1	1.231
5.95 K, Crystal 1	1.445
6.26 K, Crystal 1	1.675
6.62 K, Crystal 1	1.937
7 K, Crystal 1	2.276
7.37 K, Crystal 1	2.577
7.74 K, Crystal 1	2.937
8.14 K, Crystal 1	3.382
8.58 K, Crystal 1	3.847
9.03 K, Crystal 1	4.373
9.49 K, Crystal 1	4.87
9.99 K, Crystal 1	5.512
10.51 K, Crystal 1	6.205
11.04 K, Crystal 1	6.889
11.61 K, Crystal 1	7.681
12.2 K, Crystal 1	8.523
12.83 K, Crystal 1	9.473
13.48 K, Crystal 1	10.42
14.15 K, Crystal 1	11.42
14.89 K, Crystal 1	12.53
15.66 K, Crystal 1	13.66
16.43 K, Crystal 1	14.93
17.26 K, Crystal 1	16.13
18.12 K, Crystal 1	17.43
19.04 K, Crystal 1	18.89
20 K, Crystal 1	20.23
21.02 K, Crystal 1	21.71
22.08 K, Crystal 1	23.27
23.2 K, Crystal 1	24.92
24.41 K, Crystal 1	26.58
25.66 K, Crystal 1	28.24
26.93 K, Crystal 1	29.92
28.27 K, Crystal 1	31.55
29.67 K, Crystal 1	33.28
31.12 K, Crystal 1	34.98
32.66 K, Crystal 1	36.66
34.28 K, Crystal 1	38.41
36 K, Crystal 1	40.06
37.89 K, Crystal 1	42.03
39.9 K, Crystal 1	43.93
42.02 K, Crystal 1	45.96
44.24 K, Crystal 1	48.03
46.54 K, Crystal 1	50.11
48.92 K, Crystal 1	52.21
51.35 K, Crystal 1	54.32
53.83 K, Crystal 1	56.47
56.32 K, Crystal 1	58.63
58.78 K, Crystal 1	60.81
61.29 K, Crystal 1	62.85
64.03 K, Crystal 1	65.18
66.85 K, Crystal 1	67.74
69.53 K, Crystal 1	70.14
72.08 K, Crystal 1	72.41
74.6 K, Crystal 1	74.48
77.11 K, Crystal 1	76.77
79.66 K, Crystal 1	78.77
79.78 K, Crystal 1	79.07
81.5 K, Crystal 1	80.47
82.26 K, Crystal 1	80.88
83.22 K, Crystal 1	81.89
84.79 K, Crystal 1	83.06
84.94 K, Crystal 1	83.28
86.67 K, Crystal 1	84.77
87.34 K, Crystal 1	85.27
88.39 K, Crystal 1	86.22
89.9 K, Crystal 1	87.37
90.12 K, Crystal 1	87.73
91.85 K, Crystal 1	89.21
92.42 K, Crystal 1	89.76
93.59 K, Crystal 1	90.65
94.94 K, Crystal 1	91.69
95.32 K, Crystal 1	92.09
97.06 K, Crystal 1	93.51
97.47 K, Crystal 1	93.81
98.8 K, Crystal 1	95.01
100.02 K, Crystal 1	95.95
100.55 K, Crystal 1	96.44
102.3 K, Crystal 1	97.81
102.58 K, Crystal 1	98.22
104.04 K, Crystal 1	99.24
105.18 K, Crystal 1	100.4
105.8 K, Crystal 1	100.7
107.55 K, Crystal 1	102
107.78 K, Crystal 1	102.4
109.31 K, Crystal 1	103.5
111.06 K, Crystal 1	104.9
112.82 K, Crystal 1	106.2
114.58 K, Crystal 1	107.7
116.34 K, Crystal 1	109
118.11 K, Crystal 1	110.4
119.87 K, Crystal 1	111.7
121.64 K, Crystal 1	113.1
123.41 K, Crystal 1	114.4
125.18 K, Crystal 1	115.8
126.95 K, Crystal 1	117.2
128.73 K, Crystal 1	118.4
130.5 K, Crystal 1	119.8
132.28 K, Crystal 1	121.1
134.07 K, Crystal 1	122.4
135.85 K, Crystal 1	123.7
137.63 K, Crystal 1	125.1
139.41 K, Crystal 1	126.4
141.2 K, Crystal 1	127.7
142.99 K, Crystal 1	128.9
144.77 K, Crystal 1	130.2
146.56 K, Crystal 1	131.5
148.36 K, Crystal 1	132.8
150.15 K, Crystal 1	134.1
151.94 K, Crystal 1	135.3
153.73 K, Crystal 1	136.6
155.53 K, Crystal 1	137.9
157.32 K, Crystal 1	139.1
159.12 K, Crystal 1	140.4
160.91 K, Crystal 1	141.7
162.72 K, Crystal 1	143
164.52 K, Crystal 1	144.3
166.32 K, Crystal 1	145.5
168.12 K, Crystal 1	146.8
169.92 K, Crystal 1	148
171.73 K, Crystal 1	149.2
173.53 K, Crystal 1	150.5
175.33 K, Crystal 1	151.8
177.14 K, Crystal 1	153.1
178.95 K, Crystal 1	154.4
180.76 K, Crystal 1	155.6
182.56 K, Crystal 1	156.9
184.37 K, Crystal 1	158.2
186.18 K, Crystal 1	159.4
188 K, Crystal 1	160.7
189.81 K, Crystal 1	162.1
191.62 K, Crystal 1	163.3
193.43 K, Crystal 1	164.6
195.25 K, Crystal 1	165.9
197.06 K, Crystal 1	167.2
198.87 K, Crystal 1	168.5
200.69 K, Crystal 1	169.8
202.5 K, Crystal 1	171.1
204.32 K, Crystal 1	172.4
206.14 K, Crystal 1	173.7
207.95 K, Crystal 1	175
209.77 K, Crystal 1	176.4
211.6 K, Crystal 1	177.6
213.42 K, Crystal 1	178.9
215.24 K, Crystal 1	180.2
216.36 K, Crystal 1	180.9
217.07 K, Crystal 1	181.5
218.32 K, Crystal 1	182.5
218.89 K, Crystal 1	182.9
220.14 K, Crystal 1	183.7
220.72 K, Crystal 1	184.2
221.96 K, Crystal 1	185.1
222.55 K, Crystal 1	185.4
223.78 K, Crystal 1	186.5
225.6 K, Crystal 1	187.8
227.43 K, Crystal 1	189.1
229.25 K, Crystal 1	190.5
231.07 K, Crystal 1	191.9
232.89 K, Crystal 1	193.3
234.71 K, Crystal 1	194.7
236.53 K, Crystal 1	196.1
238.35 K, Crystal 1	197.4
240.18 K, Crystal 1	198.8
242 K, Crystal 1	200.2
243.83 K, Crystal 1	201.7
245.65 K, Crystal 1	203.1
247.48 K, Crystal 1	204.5
249.3 K, Crystal 1	206
251.12 K, Crystal 1	207.5
252.95 K, Crystal 1	208.9
254.77 K, Crystal 1	210.4
256.59 K, Crystal 1	212
258.41 K, Crystal 1	213.7
260.23 K, Crystal 1	215.2
262.05 K, Crystal 1	216.8
263.88 K, Crystal 1	218.5
265.7 K, Crystal 1	220.1
267.52 K, Crystal 1	221.7
269.34 K, Crystal 1	223.4
271.17 K, Crystal 1	225.1
272.99 K, Crystal 1	226.5
274.82 K, Crystal 1	227.9
276.64 K, Crystal 1	229.6
278.46 K, Crystal 1	231.1
278.81 K, Crystal 1	231.4
280.29 K, Crystal 1	232.6
280.63 K, Crystal 1	233
282.11 K, Crystal 1	234.2
282.45 K, Crystal 1	234.5
283.93 K, Crystal 1	235.8
284.26 K, Crystal 1	236.1
285.75 K, Crystal 1	237.3
286.08 K, Crystal 1	237.7
287.57 K, Crystal 1	239
287.88 K, Crystal 1	239.5
289.39 K, Crystal 1	240.8
289.68 K, Crystal 1	241.3
290.89 K, Crystal 1	242.4
291.08 K, Crystal 1	242.5
291.22 K, Crystal 1	242.6
291.47 K, Crystal 1	242.9
291.8 K, Crystal 1	243.3
292.76 K, Crystal 1	244.5
293.04 K, Crystal 1	244.4
293.06 K, Crystal 1	244.7
293.25 K, Crystal 1	244.8
293.66 K, Crystal 1	245.4
294.53 K, Crystal 1	246.2
294.86 K, Crystal 1	246.6
294.94 K, Crystal 1	246.6
295.02 K, Crystal 1	246.7
295.44 K, Crystal 1	247.2
296.68 K, Crystal 1	248.4
296.79 K, Crystal 1	248.6
296.82 K, Crystal 1	248.6
298.5 K, Crystal 1	250.6
298.55 K, Crystal 1	250.5
298.69 K, Crystal 1	250.9
312.2 K, Liquid	370.6
314.15 K, Liquid	373.6
316.02 K, Liquid	376.5
317.57 K, Liquid	379.5
317.87 K, Liquid	379.7
318.1 K, Liquid	380.3
318.47 K, Liquid	380.7
318.82 K, Liquid	381.4
319.28 K, Liquid	381.8
319.72 K, Liquid	382.6
320.06 K, Liquid	383.3
320.34 K, Liquid	383.5
320.78 K, Liquid	384.6
321.01 K, Liquid	384.9
321.31 K, Liquid	385.3
321.56 K, Liquid	385.4
322.18 K, Liquid	386.6
322.55 K, Liquid	386.9
323.31 K, Liquid	388.4
323.4 K, Liquid	388.2
323.45 K, Liquid	388.5
323.79 K, Liquid	388.8
324.01 K, Liquid	389.3
325.28 K, Liquid	391.1
325.83 K, Liquid	392
325.85 K, Liquid	392.2
327.12 K, Liquid	393.8
327.67 K, Liquid	394.8
328.34 K, Liquid	395.8
328.95 K, Liquid	396.4
329.49 K, Liquid	397.5
330.79 K, Liquid	399.1
330.84 K, Liquid	399.3
331.3 K, Liquid	400.1
332.62 K, Liquid	401.7
333.11 K, Liquid	402.5
333.33 K, Liquid	402.6
334.46 K, Liquid	404.2
335.81 K, Liquid	406
336.3 K, Liquid	406.5
338.14 K, Liquid	408.8
338.29 K, Liquid	409
339.98 K, Liquid	411.3
340.77 K, Liquid	412.1
341.82 K, Liquid	413.4
343.25 K, Liquid	415.1
343.66 K, Liquid	415.8
345.5 K, Liquid	417.9
345.72 K, Liquid	418.1
347.35 K, Liquid	419.8
348.2 K, Liquid	420.7
349.19 K, Liquid	421.7
350.66 K, Liquid	423
351.04 K, Liquid	423.4
352.88 K, Liquid	425.1
353.12 K, Liquid	425.1
354.73 K, Liquid	426.7
355.58 K, Liquid	427.2
356.58 K, Liquid	428.4
358.04 K, Liquid	429.4
358.43 K, Liquid	429.7
360.27 K, Liquid	431.1
360.49 K, Liquid	431
362.12 K, Liquid	432.6
362.94 K, Liquid	432.8
363.97 K, Liquid	433.8
365.39 K, Liquid	434.2
365.82 K, Liquid	435.5
367.67 K, Liquid	436.2
367.84 K, Liquid	435.7
